Laboratory results from patent US6054475A, “Substituted dihydrobenzofuran-based phosphodiesterase 4 inhibitors useful for treating airway disorders” (Byk Gulden Lomberg Chemische Fabrik GmbH, priority 1996, dated 2000).

System: PDE4
Test: Inhibition of PDE4 activity (method of Bauer and Schwabe, adapted to microtiter plates)
Format: biochemical
Conditions: Table A; inhibitory concentrations as -log IC50 (mol/l)
Protocol: The activity test was carried out according to the method of Bauer and Schwabe, which was adapted to microtiter plates (Naunyn-Schmiedeberg's Arch. Pharmacol. 311, 193-198, 1980). The PDE reaction takes place here in the first step. In a second step, the resulting 5'-nucleotide is cleaved to give the uncharged nucleoside by a 5'-nucleotidase of the snake venom from Crotalus atrox. In the third step, the nucleoside is separated from the remaining charged substrate on ion exchange columns. Using 2 ml of 30 mM ammonium formate (pH 6.0), the columns are eluted directly into minivials to which is additionally added 2 ml of scintillator fluid for counting.

Point of comparison: `COc1ccc([C@]2(C#N)CC[C@@H](C(=O)NO)CC2)c2c1OC1(CCCC1)C2` [Compound 7, cis-4-Cyano-4-(2,3-dihydro-7-methoxybenzofuran-2-spiro-1'-cyclopentan-4-yl)cyclohexane-1-carboxylic acid hydroxylamide], “-log IC50 (inhibition of PDE4 activity)” value 7.52. Against it:
- COc1ccc([C@]2(C#N)CC[C@@H](C(N)=O)CC2)c2c1OC1(CCCC1)C2 [Compound 5, cis-4-Cyano-4-(2,3-dihydro-7-methoxybenzofuran-2-spiro-1'-cyclopentan-4-yl)cyclohexane-1-carboxamide] — higher, 8.31
- COc1ccc(C2(OC)CCOCC2)c2c1OC1(CCCC1)C2 [Compound 13, 4-a-Methoxy-4-e-(2,3-dihydro-7-methoxybenzofuran-2-spiro-1'-cyclopentan-4-yl)tetrahydropyran] — within 0.2 log units, 7.41
- COc1ccc(C2(C#N)CCC(=NO)CC2)c2c1OC1(CCCC1)C2 (centres unmarked) [Compound 14, 4-a-Cyano-4-e-(2,3-dihydro-7-methoxybenzofuran-2-spiro-1'-cyclopentan-4-yl)cyclohexan-1-one oxime] — higher, 7.78
- COc1ccc([C@]2(C#N)CC[C@@H](OP(=O)(O)Oc3ccccc3)CC2)c2c1OC1(CCCC1)C2 [Compound 8, cis-4-Cyano-4-(2,3-dihydro-7-methoxybenzofuran-2-spiro-1'-cyclopentan-4-yl)cyclohexyl-1-phenyl phosphate] — within 0.2 log units, 7.44
- COc1ccc(C2(C#N)CCOCC2)c2c1OC1(CCCC1)C2 [Compound 9, 4-a-Cyano-4-e-(2,3-dihydro-7-methoxybenzofuran-2-spiro-1'-cyclopentan-4-yl)tetrahydropyran] — higher, 8.26
- COc1ccc(C2(C#N)CCNC(=O)CC2)c2c1OC1(CCCC1)C2 (centres unmarked) [Compound 16, 7-Oxo-4-cyano-4-(2,3-dihydro-7-methoxybenzofuran-2-spiro-1'-cyclopentan-4-yl)hexahydroazepine] — higher, 7.96
- COc1ccc([C@]2(C#N)CC[C@@H](C(=O)O)CC2)c2c1OC1(CCOCC1)C2 [Compound 4, cis-4-Cyano-4-(2,3-dihydro-7-methoxybenzofuran-2-spiro-4'-tetrahydropyran-4-yl)cyclohexane-1-carboxylic acid] — within 0.2 log units, 7.69
- COc1ccc(C2(C#N)CCS(=O)(=O)CC2)c2c1OC1(CCCC1)C2 [Compound 11, 1,1-Dioxo-4-a-cyano-4-e-(2,3-dihydro-7-methoxybenzofuran-2-spiro-1'-cyclopentan-4-yl)tetrahydro-1-thiopyran] — higher, 7.72
- COc1ccc([C@]2(C#N)CC[C@@H](C(N)=O)CC2)c2c1OC1(CCOCC1)C2 [Compound 6, cis-4-Cyano-4-(2,3-dihydro-7-methoxybenzofuran-2-spiro-4'-tetrahydropyran-4-yl)cyclohexane-1-carboxamide] — within 0.2 log units, 7.65
- COc1ccc([C@]2(C#N)CC[C@@H](C(=O)O)CC2)c2c1OC1(CCCC1)C2 [Compound 2.1, cis-4-Cyano-4-(2,3-dihydro-7-methoxybenzofuran-2-spiro-1'-cyclopentan-4-yl)cyclohexane-1-carboxylic acid] — higher, 8.22
